Results reported in patent US7897610B2, “Use of benzo[c]quinolizinium derivatives for the treatment of diseases that are linked to smooth muscle cell constriction” (Centre National de la Recherche Scientifique, priority 2002, dated 2011).
pEC50: −log10 of the molar value. Where two headings read alike, the source gives them in different places.

What was measured:
[1] = test system: aorta rings isolated from rats; test: Isolated organ technique: relaxation of rat aorta rings pre-contracted in hyperpotassium solution (80 mM KCl); assay type: cell-based; conditions: for relaxation: with endothelium; for pEC50: Rattus norvegicus
Procedure: The experiments are carried out on the thoracic aorta of male rats of Wistar strain weighing 200 to 250 g, 7 to 8 weeks of age. The rat is stunned then placed in the supine position. After thoracotomy, the segment of the aorta comprised between the diaphragm and the right aortic arch is excised. The portion of aorta is immediately placed in a buffered physiological solution of modified Krebs type. The aorta is sectioned into 5 mm rings.
For certain preparations, the endothelium is removed mechanically using a needle surrounded by a wire which is turned in the aorta ring.
The aorta rings, after dissection, are suspended between two hooks one of which is fixed and the other is mobile. This mounting is placed in a chamber of Plexiglas (Emka Technologies), thermostatically-controlled at 37° C., containing 5 ml of physiological solution oxygenated by a gas mixture (95% O2-5% CO2). The thermostatically-controlled enclosure is supplied by a water bath. The mobile hook is suspended with a sensor connected to the interface (electromechanical transducer). This interface is connected on the one hand to an amplifier (amplification of the signal) and on the other hand to a computer (display and analysis of the signal). The IOX 1.565 program enables the processing and display of the signals on the computer screen. The Data Analyst and Prism 3.0 programs allow analysis of the results.
After mounting the aorta rings in the experimental device, these are stretched at a basal tension of 2.5 g. This tension corresponds to the optimum point of their tension/length relationship. Waiting for a stable state in the reference physiological medium is carried out over a period of approximately 1 hour with washing every 20 minutes. Following this equilibration period, the different experiments are carried out.
In order to be free of the relaxation/contraction mechanisms due to the endothelium, certain preparations are made devoid of the latter by mechanical destruction. In order to ensure effective destruction of the endothelium, a cholinergic test (ACh 10^−4 M) is carried out at the end of the first period of equilibration, on preparations pre-contracted by a hyperpotassium solution (80 mM of KCl).
Following this test, the preparations are subjected to several successive washings in order to re-establish a stable state. Once a stable state is reached, the different experiments can be carried out. The contractures due to the hyperpotassium solutions are obtained by the total replacement of the reference physiological solution by the hyperpotassium solution. The administration of the pharmacological substances is carried out in a cumulative fashion and directly in the isolated organ chambers whilst paying attention that the additional volume is not too high. The application of each new concentration only occurs after stabilization. In order to be aware of the reactivity state of the preparation at the end of manipulation, a hyperpotassium or noradrenergic test is carried out. If the preparation reacts in the direction of a contracture, the test is valid.
The composition of the reference physiological solution is a solution of modified Krebs type: NaCl: 120 mM; KCl: 4.7 mM; CaCl2: 2.5 mM; MgCl2: 1.2 mM; NaH2PO4: 1.2 mM; NaHCO3: 15 mM; Hepes: 10 mM; Glucose: 11 mM; pH=7.4. Hyperpotassium solutions containing different concentrations of KCl have been prepared according to the same principle. These solutions are used to provoke a contracture of the aorta ring by depolarisation of the smooth muscle cells. The hyperpotassium solution mainly used in the experiments contains 80 mM of KCl.

CFTR [2] = molecular target: T1, CFTR (Rattus norvegicus, UniProt P34158); test: Iodide efflux in muscle cell freshly dissociated from rat aorta; assay type: cell-based
T1 construct: CFTR is detected at the level of its messenger RNA and at the level of protein in the smooth muscles; from tissue; host or cells: smooth muscle cells freshly dissociated from rat aorta
T1 sequence (P34158 whole entry): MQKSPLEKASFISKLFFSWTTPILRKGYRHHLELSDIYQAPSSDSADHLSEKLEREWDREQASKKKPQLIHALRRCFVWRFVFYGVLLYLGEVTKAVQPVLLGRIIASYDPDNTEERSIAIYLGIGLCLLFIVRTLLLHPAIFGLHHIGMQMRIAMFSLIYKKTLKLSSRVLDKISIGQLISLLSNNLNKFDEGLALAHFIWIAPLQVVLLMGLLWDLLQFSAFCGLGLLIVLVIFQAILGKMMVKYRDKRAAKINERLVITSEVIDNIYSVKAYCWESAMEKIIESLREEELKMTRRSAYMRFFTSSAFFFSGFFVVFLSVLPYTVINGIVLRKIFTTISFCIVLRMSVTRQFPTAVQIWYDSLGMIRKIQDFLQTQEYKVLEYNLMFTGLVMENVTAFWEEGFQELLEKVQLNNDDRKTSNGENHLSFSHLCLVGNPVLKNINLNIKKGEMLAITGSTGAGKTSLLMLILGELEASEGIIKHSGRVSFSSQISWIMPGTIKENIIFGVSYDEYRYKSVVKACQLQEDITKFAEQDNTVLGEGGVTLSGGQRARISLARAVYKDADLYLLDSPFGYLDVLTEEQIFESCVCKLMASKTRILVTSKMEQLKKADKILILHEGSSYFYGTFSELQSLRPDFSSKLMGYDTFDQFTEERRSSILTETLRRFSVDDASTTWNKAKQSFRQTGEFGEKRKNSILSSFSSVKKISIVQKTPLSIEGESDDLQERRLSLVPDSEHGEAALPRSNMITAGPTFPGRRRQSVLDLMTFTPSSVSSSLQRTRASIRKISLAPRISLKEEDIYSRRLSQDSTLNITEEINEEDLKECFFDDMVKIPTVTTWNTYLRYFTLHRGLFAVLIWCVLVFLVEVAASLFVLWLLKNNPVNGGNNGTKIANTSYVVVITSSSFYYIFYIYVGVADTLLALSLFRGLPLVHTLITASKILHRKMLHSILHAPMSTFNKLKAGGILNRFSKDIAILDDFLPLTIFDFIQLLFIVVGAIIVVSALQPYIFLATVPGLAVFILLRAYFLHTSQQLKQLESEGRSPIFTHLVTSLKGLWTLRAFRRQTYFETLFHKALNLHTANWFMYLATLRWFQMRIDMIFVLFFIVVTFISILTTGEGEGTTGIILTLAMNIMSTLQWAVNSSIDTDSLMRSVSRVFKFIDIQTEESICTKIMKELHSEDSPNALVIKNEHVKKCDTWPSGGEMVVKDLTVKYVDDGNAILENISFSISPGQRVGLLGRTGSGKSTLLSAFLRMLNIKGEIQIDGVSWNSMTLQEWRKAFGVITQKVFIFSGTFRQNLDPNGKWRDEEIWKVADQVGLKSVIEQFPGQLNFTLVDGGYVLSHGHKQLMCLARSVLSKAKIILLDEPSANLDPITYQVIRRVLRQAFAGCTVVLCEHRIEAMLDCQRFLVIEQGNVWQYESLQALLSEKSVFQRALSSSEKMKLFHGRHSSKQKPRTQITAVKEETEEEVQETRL
Description: (§1) CFTR is detected at the level of its messenger RNA and at the level of protein in the smooth muscles. As negative control the inventors used musculus skeleti of rat at the level of which neither the messenger nor the protein are present. CFTR is detectable in the smooth muscle by immunoprecipitation and phosphorylation in vitro by the protein kinase A. The pharmacology of CFTR has been studied using iodide efflux in muscle cell freshly dissociated from rat aorta. […] Its inhibition profile is similar to that of epithelial CFTR (sensitivity to glibenclamide and DPC but not to Calixarene). […] Moreover, a greater contraction is observed in the KO animals in response to the constricting agents.

[3] = test system: anionic transport in smooth muscle cells of aorta rings; test: Iodide efflux (125I) on rat aorta rings; assay type: cell-based; design: key to iodide discharge speed / iodide discharge speed after stimulation: Ln(125I t1/125I t2)/(t1−t2), per min; conditions: for iodide discharge speed: without endothelium, hyperpotassium medium, 250 μM
Procedure: The iodide efflux technique, perfected by Venglarick et al. (1990), allows measurement of the movement of ions and is described in detail in Derand et al. (2001).
The aorta rings of equivalent size, are incubated in 1 ml of filling solution composed of physiological solution of modified Krebs type or hyperpotassium solution (80 mM KCl) supplemented with 1.5 μl/ml of Na ^125I and 0.1 μl/ml of KI. After incubation for 1 hour 30 minutes at 37° C., 4 successive rinsings of two minutes are carried out in 1 ml of appropriate physiological solution (normal Krebs or hyperpotassium solution). An iodide efflux kinetics of the aorta rings is carried out for 12 min. After each minute, the content of each well is sampled and placed in hemolysis tubes, and radioactivity is counted with a gamma counter (Packard, Cobra II). At the 12th minute, the aorta rings are solubilized in Sodium Dodecyl Sulphate (SDS 0.1%)+NaOH (0.1 M). This stage allows the recovery of the residual radioactivity by cell destruction.
The total radioactivity of the cells is calculated by the addition of the counts per minute (cpm) of each collected fraction and of the cpm of the solubilized fraction (residual radioactivity). The curves are plotted expressing the efflux as a percentage of the cell content accumulated in the medium as a function of time. For example, the value attributed at time tn, corresponds to: 100×(Σ cpm obtained from t0 to tn)/total radioactivity. The instantaneous discharge speed is presented according to the formula Ln(^125It1/^125It2)/(t1−t2), where t1 and t2 are two successive times and ^125It1 and ^125It2 are the effluxes measured at time t1 and t2. In order to evaluate the effect of a substance, the activation ratio r=discharge speed after stimulation/discharge speed before stimulation is determined. The results (average±SEM) are compared using Student's statistical test for a paired value.

CFTR [4] = molecular target: T2, CFTR (Homo sapiens, UniProt P13569); conditions: epithelial cells; cited from earlier work
T2 construct: In cells expressing the CFTR protein in an endogenous manner
T2 sequence (P13569 whole entry): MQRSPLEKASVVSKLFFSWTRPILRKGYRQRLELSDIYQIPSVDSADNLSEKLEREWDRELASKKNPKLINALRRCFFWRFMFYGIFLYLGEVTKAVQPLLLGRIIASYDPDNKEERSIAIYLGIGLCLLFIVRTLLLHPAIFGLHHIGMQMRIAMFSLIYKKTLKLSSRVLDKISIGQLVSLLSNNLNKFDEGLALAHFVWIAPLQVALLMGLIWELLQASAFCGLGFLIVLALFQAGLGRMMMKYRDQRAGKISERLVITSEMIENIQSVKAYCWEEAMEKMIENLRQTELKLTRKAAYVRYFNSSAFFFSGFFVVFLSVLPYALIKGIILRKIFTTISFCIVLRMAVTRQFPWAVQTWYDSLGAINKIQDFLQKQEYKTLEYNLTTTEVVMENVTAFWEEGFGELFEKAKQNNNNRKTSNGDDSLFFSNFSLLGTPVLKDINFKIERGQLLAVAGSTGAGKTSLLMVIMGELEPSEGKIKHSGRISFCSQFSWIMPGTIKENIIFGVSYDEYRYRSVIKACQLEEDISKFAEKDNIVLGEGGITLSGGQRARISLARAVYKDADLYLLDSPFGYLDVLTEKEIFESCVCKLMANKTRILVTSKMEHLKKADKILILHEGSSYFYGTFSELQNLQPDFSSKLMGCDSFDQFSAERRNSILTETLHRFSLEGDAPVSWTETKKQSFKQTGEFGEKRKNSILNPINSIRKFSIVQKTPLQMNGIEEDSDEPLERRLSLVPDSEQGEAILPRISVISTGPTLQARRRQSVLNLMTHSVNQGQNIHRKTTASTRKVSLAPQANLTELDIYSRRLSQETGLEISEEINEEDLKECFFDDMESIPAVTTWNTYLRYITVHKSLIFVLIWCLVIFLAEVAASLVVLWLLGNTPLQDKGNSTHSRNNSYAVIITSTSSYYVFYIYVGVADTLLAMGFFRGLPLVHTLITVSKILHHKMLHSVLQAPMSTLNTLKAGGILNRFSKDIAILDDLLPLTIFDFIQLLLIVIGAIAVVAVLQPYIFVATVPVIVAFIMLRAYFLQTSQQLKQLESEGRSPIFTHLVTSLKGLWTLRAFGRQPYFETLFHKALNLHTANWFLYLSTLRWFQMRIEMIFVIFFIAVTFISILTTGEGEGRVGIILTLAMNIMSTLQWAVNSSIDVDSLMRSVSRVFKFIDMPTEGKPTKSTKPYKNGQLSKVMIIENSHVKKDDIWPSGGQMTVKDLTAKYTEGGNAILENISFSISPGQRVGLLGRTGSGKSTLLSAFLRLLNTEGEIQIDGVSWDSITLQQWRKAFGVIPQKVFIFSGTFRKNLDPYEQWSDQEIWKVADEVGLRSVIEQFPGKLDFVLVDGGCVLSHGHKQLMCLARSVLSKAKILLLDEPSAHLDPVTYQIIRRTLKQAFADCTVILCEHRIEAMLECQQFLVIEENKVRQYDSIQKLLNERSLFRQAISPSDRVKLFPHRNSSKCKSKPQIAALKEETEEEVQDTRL

[5] = test system: aorta rings with endothelium pre-contracted by arterenol; test: Isolated organ technique: relaxation of rat aorta rings pre-contracted by arterenol; assay type: cell-based; conditions: 200 μM, added after MPB-07 10 μM
Procedure: The experiments are carried out on the thoracic aorta of male rats of Wistar strain weighing 200 to 250 g, 7 to 8 weeks of age. The rat is stunned then placed in the supine position. After thoracotomy, the segment of the aorta comprised between the diaphragm and the right aortic arch is excised. The portion of aorta is immediately placed in a buffered physiological solution of modified Krebs type. The aorta is sectioned into 5 mm rings. The aorta rings, after dissection, are suspended between two hooks one of which is fixed and the other is mobile. […] The thermostatically-controlled enclosure is supplied by a water bath. The mobile hook is suspended with a sensor connected to the interface (electromechanical transducer). This interface is connected on the one hand to an amplifier (amplification of the signal) and on the other hand to a computer (display and analysis of the signal). […] The Data Analyst and Prism 3.0 programs allow analysis of the results. After mounting the aorta rings in the experimental device, these are stretched at a basal tension of 2.5 g. This tension corresponds to the optimum point of their tension/length relationship. Waiting for a stable state in the reference physiological medium is carried out over a period of approximately 1 hour with washing every 20 minutes. Following this equilibration period, the different experiments are carried out. […]

[6] = test system: aorta rings of Cftr+/+ mice; test: Vasorelaxation of aorta rings contracted by 80 mM K+, Cftr+/+ mice; assay type: cell-based, mouse; conditions: Cftr+/+ rat and mouse tissues
Description: as §1
(§2) a, graphs showing the vasorelaxation induced by the VIP neuropeptide (Vasoactive Intestinal Polypeptide) of aortas without endothelium of Cftr^+/+ (left) and Cftr^−/− (right) mice. The aorta rings are reversibly contracted by a hyperpotassium solution (solution of 80 mM K^+) then the effect of 300 nM VIP is measured. The absence of endothelium is verified by the addition of acetylcholine (ACh, 10^−5 M).
(§3) This effect is absent in Cftr^−/− mice (n=6). Average±SEM*P<0.05, ** P<0.01, *** P<0.001.

[7] = test system: aorta rings of Cftr-/- mice; test: Vasorelaxation of aorta rings contracted by 80 mM K+, Cftr-/- mice; assay type: cell-based, mouse; conditions: pre-contracted aorta
Description: as §1, §2, §3

Compound: CC(=O)OCC[N+](C)(C)C [ACh, acetylcholine, reference compound]
- relaxation (cholinergic test) ([1]; rings with endothelium, 10^-4 M): approximately 40%

Compound: O=C(O)c1ccccc1Nc1ccccc1 [DPC]
- inhibition profile of iodide efflux (CFTR [2]): sensitivity

Compound: CC(C)Cn1c(=O)n(C)c(=O)c2[nH]cnc21 [IBMX]
- activation of iodide efflux (CFTR [2]): activate iodide efflux

Compound: O=c1cc2ccccn2c2c(Cl)cccc12 [MPB-70, 10-chlorobenzo[c]quinolizine-6-one, reference compound]
- activation of anionic transport / discharge speed ([3]; smooth muscle cells of aorta rings): no increase in the discharge speed
- iodide discharge speed ([3]; 1 minute after addition): 0.053±0.003
- iodide discharge speed ([3]; 2 minutes after addition): 0.055±0.005
- activity on the CFTR channel (CFTR [4]): inactive on CFTR of epithelial cells
- relaxation ([1]; 160 μM): 27%
- relaxation ([1]; 250 μM): 42%
- relaxation ([1]; 500 μM): 46%

Compound: CCCCc1c(O)c2cccc(Cl)c2[n+]2ccccc12.[Cl-] [MPB-91, 5-n-Butyl-10-chloro-6-hydroxybenzo[c]quinolizinium chloride]
- pEC50 ([1]; comparison of FIG. 6, read-out: EC50, dose/response curves): 4.68
- pEC50 ([1]; summary statement of results, read-out: EC50, vasorelaxant effect): 4.68
- melting point: 160 °C

Compound: Nc1ncnc2c1nc(Sc1ccc(Cl)cc1)n2[C@@H]1O[C@@H]2COP(=O)(O)O[C@H]2[C@H]1O [cpt-cAMP]
- activation of iodide efflux (CFTR [2]): activate iodide efflux

Compound: COc1ccc(Cl)cc1C(=O)NCCc1ccc(S(=O)(=O)NC(=O)NC2CCCCC2)cc1 [glibenclamide]
- inhibition profile of iodide efflux (CFTR [2]): sensitivity

Compound: COc1ccc(CCN(C)CCCC(C#N)(c2ccc(OC)c(OC)c2)C(C)C)cc1OC (stereo not shown) [verapamil, Verapamil, reference compound]
- effect on rapid contracture oscillations [5]: stops these variations

Compound: Vasoactive Intestinal Polypeptide [VIP, reference compound]
- effect on pre-contracted aorta [6]: relaxation of the pre-contracted aorta
- vasorelaxation in Cftr-/- mice [7]: very considerably reduced
- activation of iodide efflux (CFTR [2]): activate iodide efflux
